Ten compounds from patent US20240228469A1, “PCSK9 INHIBITORS AND METHODS OF USE THEREOF” (AstraZeneca AB, priority 2022, published 2024) can be followed below.

Each structure is given as a SMILES string.

As a reminder, the Kd is the concentration at which binding is half-saturated.

In this test the target is PCSK9 (Homo sapiens, UniProt Q8NBP7). The experiment in a line: Assay 2 Biophysical human PCSK9 assay (SPR, Biacore). It counts as binding. On the set-up: biotinylated human PCSK9 (31-692)-Avi-His6; His6 (C). The following applies: single-cycle kinetics, 30° C., geometric mean, read-out: Assay 2 (PCSK9 BIAcore DBA Cr) GMean Kd. Background: Surface plasmon resonance follows binding to a sensor surface in real time, without labels.
Chain of PCSK9 (Q8NBP7 31-692): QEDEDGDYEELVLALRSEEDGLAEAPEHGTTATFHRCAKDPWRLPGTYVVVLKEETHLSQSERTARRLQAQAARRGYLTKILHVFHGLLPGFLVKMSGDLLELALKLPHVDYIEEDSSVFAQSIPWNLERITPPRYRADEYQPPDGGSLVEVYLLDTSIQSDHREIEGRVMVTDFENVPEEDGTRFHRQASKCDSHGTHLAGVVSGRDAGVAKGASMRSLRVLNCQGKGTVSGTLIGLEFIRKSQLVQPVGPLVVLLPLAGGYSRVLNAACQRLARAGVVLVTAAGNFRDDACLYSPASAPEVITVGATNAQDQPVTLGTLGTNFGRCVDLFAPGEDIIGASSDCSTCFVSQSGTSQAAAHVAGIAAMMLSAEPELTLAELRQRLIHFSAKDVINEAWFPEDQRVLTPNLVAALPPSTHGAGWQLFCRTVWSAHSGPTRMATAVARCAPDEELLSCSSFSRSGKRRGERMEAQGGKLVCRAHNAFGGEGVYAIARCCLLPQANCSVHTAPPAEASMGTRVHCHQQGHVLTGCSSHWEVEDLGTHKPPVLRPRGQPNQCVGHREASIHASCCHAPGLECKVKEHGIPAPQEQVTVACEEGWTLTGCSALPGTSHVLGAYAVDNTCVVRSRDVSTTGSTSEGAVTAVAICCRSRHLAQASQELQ
With `O=c1ccccn1-c1ccc(N[C@H]2CC[C@H](Nc3ncc(C4CC4)nn3)C2)nc1` [Example 50, 6′-(((1S,3S)-3-((6-Cyclopropyl-1,2,4-triazin-3-yl)amino)cyclopentyl)amino)-2H-[1,3′-bipyridin]-2-one], the dissociation constant Kd was 9.8 nM.

For the compound `Cc1cnc(N[C@H]2CC[C@H](Nc3ccc(-n4cccc(OC(F)F)c4=O)cn3)C2)nn1` [Example 187, 3-(Difluoromethoxy)-6′-(((1S,3S)-3-((6-methyl-1,2,4-triazin-3-yl)amino)cyclopentyl)amino)-2H-[1,3′-bipyridin]-2-one], the Kd was 3.7 nM.

With `Cc1cnc(N[C@H]2CC[C@H](Nc3ccc(-n4c(=O)n(C)c5cccnc54)cn3)C2)nn1` [Example 212, 1-Methyl-3-(6-(((1S,3S)-3-((6-methyl-1,2,4-triazin-3-yl)amino)cyclopentyl)amino)pyridin-3-yl)-1,3-dihydro-2H-imidazo[4,5-b]pyridin-2-one], the Kd was 1.7 nM.

As to `Cc1cnc(N[C@H]2CC[C@H](Nc3ccc(-n4cc(C#N)ccc4=O)cn3)C2)nn1` [Example 128, 6′-(((1S,3S)-3-((6-Methyl-1,2,4-triazin-3-yl)amino)cyclopentyl)amino)-2-oxo-2H-[1,3′-bipyridine]-5-carbonitrile], the Kd was found to be 30 nM.

Turning to `C#CCNC(=O)c1cnc(N[C@H]2CC[C@H](Nc3ccc(-n4ccccc4=O)cn3)C2)nn1` [Example 69, 3-(((1S,3S)-3-((2-Oxo-2H-[1,3′-bipyridin]-6′-yl)amino)cyclopentyl)amino)-N-(prop-2-yn-1-yl)-1,2,4-triazine-6-carboxamide], the Kd is 12 nM.

As to `Cn1c(=O)n(-c2ccc(N[C@H]3CC[C@H](Nc4ncc(C5CC5)nn4)C3)nc2)c2ccc(C#N)cc21` [Example 117, 1-(6-(((1S,3S)-3-((6-Cyclopropyl-1,2,4-triazin-3-yl)amino)cyclopentyl)amino)pyridin-3-yl)-3-methyl-2-oxo-2,3-dihydro-1H-benzo[d]imidazole-5-carbonitrile], the Kd is 0.9 nM.

For `Cn1c(=O)n(-c2ccc(N[C@H]3CC[C@H](Nc4ncc(C5CC5)nn4)C3)nc2)c2ccc(C(=O)O)cc21` [Example 121, 1-(6-(((1S,3S)-3-((6-Cyclopropyl-1,2,4-triazin-3-yl)amino)cyclopentyl)amino)pyridin-3-yl)-3-methyl-2-oxo-2,3-dihydro-1H-benzo[d]imidazole-5-carboxylic acid], the Kd is 1.6 nM.

As for `CNC(=O)c1cnc(N[C@H]2CC[C@H](Nc3ccc(-n4ccccc4=O)cn3)C2)nn1` [Example 75, N-Methyl-3-(((1S,3S)-3-((2-oxo-2H-[1,3′-bipyridin]-6′-yl)amino)cyclopentyl)amino)-1,2,4-triazine-6-carboxamide], the dissociation constant Kd was found to be 16 nM.

`Cc1cnc(N[C@H]2CC[C@H](Nc3ccc(-n4ccccc4=O)cn3)C2)nn1` [Example 67, 6′-(((1S,3S)-3-((6-Methyl-1,2,4-triazin-3-yl)amino)cyclopentyl)amino)-2H-[1,3′-bipyridin]-2-one]: the equilibrium dissociation constant (Kd) is 17 nM.

`O=c1cccnn1-c1ccc(N[C@H]2CC[C@H](Nc3ncc(C4CC4)nn3)C2)nc1` [Example 118]: the dissociation constant (Kd) came to 8.5 nM.
